Experimental data as given in PubChem BioAssay AID248 (DTP/NCI, 2004).
“And” between values parts separate entries of the source, which are not always exact repeats. Equal values may be shown once. Toxic doses and inconclusive results are not listed. Cut-off read from the data, not from the text of the source: active = T/C of 150% or more; inactive = T/C below 125%.

Test system: L1210 leukemia ip in BDF1 mice, survival T/C
Assay: NCI In Vivo Anticancer Drug Screen. Data for tumor model L1210 Leukemia (intraperitoneal) in B6D2F1 (BDF1) mice
Conditions: endpoint: mean survival time, higher = longer survival
In short: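 Ratio derived from survival: compound-dosed mice over vehicle-dosed mice, all bearing a transplantable tumor.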

[1] = dose: 100.0 mg/kg/injection, schedule: Q01DX001 (ip), vehicle: carboxymethylcellulose (CMC)
[2] = dose: 200.0 mg/kg/injection, schedule: Q01DX001 (ip), vehicle: carboxymethylcellulose (CMC)
[3] = dose: 400.0 mg/kg/injection, schedule: Q01DX001 (ip), vehicle: carboxymethylcellulose (CMC)
[4] = dose: 100.0 mg/kg/injection, schedule: Q04DX003 (ip), vehicle: saline
[5] = dose: 200.0 mg/kg/injection, schedule: Q04DX003 (ip), vehicle: saline
[6] = dose: 50.0 mg/kg/injection, schedule: Q01DX001 (ip), vehicle: carboxymethylcellulose (CMC)
[7] = dose: 100.0 mg/kg/injection, schedule: Q04DX002 (ip), vehicle: saline with Tween-80
[8] = dose: 200.0 mg/kg/injection, schedule: Q04DX002 (ip), vehicle: saline with Tween-80
[9] = dose: 400.0 mg/kg/injection, schedule: Q04DX002 (ip), vehicle: saline with Tween-80
[10] = dose: 100.0 mg/kg/injection, schedule: Q04DX003 (ip), vehicle: Klucel (hydroxypropylcellulose) (HPC)
[11] = dose: 200.0 mg/kg/injection, schedule: Q04DX003 (ip), vehicle: Klucel (hydroxypropylcellulose) (HPC)
[12] = dose: 400.0 mg/kg/injection, schedule: Q04DX003 (ip), vehicle: Klucel (hydroxypropylcellulose) (HPC)

Measured: T/C

NC(=O)/C=C/NC(=O)/C=N\O
inactive: dose: 12.5 mg/kg/injection, schedule: Q01DX Z (ip), vehicle: saline 97 % of control and 89 % of control | dose: 25.0 mg/kg/injection, schedule: Q01DX Z (ip), vehicle: saline 92 % of control and 93 % of control | dose: 50.0 mg/kg/injection, schedule: Q01DX Z (ip), vehicle: saline 96 % of control and 97 % of control | [1] 102 % of control | dose: 100.0 mg/kg/injection, schedule: Q01DX Z (ip), vehicle: saline 96 % of control and 100 % of control | [2] 96 % of control | dose: 200.0 mg/kg/injection, schedule: Q01DX Z (ip), vehicle: saline 97 % of control and 89 % of control | [3] 91 % of control

COc1ccc2nc3cc(Cl)ccc3c(NCCCNCCCl)c2c1
inactive: dose: 10.0 mg/kg/injection, schedule: Q04DX003 (ip), vehicle: Klucel (hydroxypropylcellulose) (HPC) 115 % of control | dose: 20.0 mg/kg/injection, schedule: Q04DX003 (ip), vehicle: Klucel (hydroxypropylcellulose) (HPC) 103 % of control | dose: 40.0 mg/kg/injection, schedule: Q04DX003 (ip), vehicle: Klucel (hydroxypropylcellulose) (HPC) 105 % of control

Oc1ccc(Nc2ncnc3cc(Cl)ccc23)cc1CN(c1ccccc1)c1ccccc1
inactive: [4] 102 % of control | [5] 89 % of control

COc1ccc(O)c(C(=O)c2cccc(OC)c2C#N)c1
inactive: dose: 25.0 mg/kg/injection, schedule: Q04DX003 (ip), vehicle: carboxymethylcellulose (CMC) 104 % of control | [6] 103 % of control | dose: 50.0 mg/kg/injection, schedule: Q04DX003 (ip), vehicle: carboxymethylcellulose (CMC) 116 % of control | [1] 97 % of control | dose: 100.0 mg/kg/injection, schedule: Q01DX009 (ip), vehicle: carboxymethylcellulose (CMC) 99 % of control and 100 % of control | dose: 100.0 mg/kg/injection, schedule: Q04DX002 (ip), vehicle: carboxymethylcellulose (CMC) 100 % of control and 91 % of control | dose: 100.0 mg/kg/injection, schedule: Q04DX003 (ip), vehicle: carboxymethylcellulose (CMC) 107 % of control and 86 % of control | [2] 99 % of control | dose: 200.0 mg/kg/injection, schedule: Q01DX009 (ip), vehicle: carboxymethylcellulose (CMC) 97 % of control and 87 % of control | dose: 200.0 mg/kg/injection, schedule: Q04DX002 (ip), vehicle: carboxymethylcellulose (CMC) 104 % of control and 108 % of control | [3] 99 % of control | dose: 400.0 mg/kg/injection, schedule: Q01DX009 (ip), vehicle: carboxymethylcellulose (CMC) 110 % of control and 86 % of control | dose: 400.0 mg/kg/injection, schedule: Q04DX002 (ip), vehicle: carboxymethylcellulose (CMC) 97 % of control and 90 % of control

CCOC(=O)NC(NC(=O)OCC)c1ccc(Cl)c(Cl)c1
inactive: [1] 98 % of control | [2] 98 % of control | [3] 93 % of control

CC(=O)Nc1ccc(C(=O)O)c(O)c1
inactive: dose: 50.0 mg/kg/injection, schedule: Q04DX003 (ip), vehicle: saline 113 % of control | [4] 108 % of control | [5] 105 % of control

OC(Cc1ccncc1)(c1ccccc1)c1ccccc1
inactive: dose: 100.0 mg/kg/injection, schedule: Q04DX003 (ip), vehicle: saline with Tween-80 88 % of control | dose: 200.0 mg/kg/injection, schedule: Q04DX003 (ip), vehicle: saline with Tween-80 88 % of control | dose: 400.0 mg/kg/injection, schedule: Q04DX003 (ip), vehicle: saline with Tween-80 109 % of control

CC1CC2(CCC1=O)OCCO2 (centres undefined)
inactive: dose: 100.0 mg/kg/injection, schedule: Q01DX001 (ip), vehicle: other 95 % of control | dose: 200.0 mg/kg/injection, schedule: Q01DX001 (ip), vehicle: other 95 % of control | dose: 400.0 mg/kg/injection, schedule: Q01DX001 (ip), vehicle: other 96 % of control

NCCCCCCCCCCC(=O)O
inactive: dose: 100.0 mg/kg/injection, schedule: Q04DX002 (ip), vehicle: Klucel (hydroxypropylcellulose) (HPC) 115 % of control | dose: 200.0 mg/kg/injection, schedule: Q04DX002 (ip), vehicle: Klucel (hydroxypropylcellulose) (HPC) 95 % of control | dose: 400.0 mg/kg/injection, schedule: Q04DX002 (ip), vehicle: Klucel (hydroxypropylcellulose) (HPC) 101 % of control

CCOc1ccc(N=Cc2cc(Br)ccc2O)cc1
inactive: [7] 96 % of control | [8] 100 % of control | [9] 100 % of control

Cc1ccc(NC(=O)Nc2ccccc2)cc1Cl
inactive: dose: 100.0 mg/kg/injection, schedule: Q01DX009 (sc), vehicle: olive oil, sesame oil, peanut oil 100 % of control | dose: 100.0 mg/kg/injection, schedule: Q04DX003 (sc), vehicle: olive oil, sesame oil, peanut oil 100 % of control | dose: 200.0 mg/kg/injection, schedule: Q01DX009 (sc), vehicle: olive oil, sesame oil, peanut oil 96 % of control | dose: 200.0 mg/kg/injection, schedule: Q04DX003 (sc), vehicle: olive oil, sesame oil, peanut oil 99 % of control | dose: 400.0 mg/kg/injection, schedule: Q01DX009 (sc), vehicle: olive oil, sesame oil, peanut oil 91 % of control | dose: 400.0 mg/kg/injection, schedule: Q04DX003 (sc), vehicle: olive oil, sesame oil, peanut oil 100 % of control

C1=CN2CCCN3C=CC=c4ccc(c2c43)=C1
inactive: dose: 7.5 mg/kg/injection, schedule: Q01DX009 (ip), vehicle: saline 100 % of control | dose: 15.0 mg/kg/injection, schedule: Q01DX009 (ip), vehicle: saline 98 % of control

CCc1nc(N)nc(-c2ccccc2)c1-c1ccc([N+](=O)[O-])cc1O
inactive: [10] 98 % of control | [11] 95 % of control | [12] 97 % of control

CC(CN(CCNc1ccccc1)c1ccccc1)c1ccccc1 (centres undefined)
inactive: dose: 25.0 mg/kg/injection, schedule: Q01DX009 (ip), vehicle: other 102 % of control | dose: 50.0 mg/kg/injection, schedule: Q01DX009 (ip), vehicle: other 105 % of control | dose: 100.0 mg/kg/injection, schedule: Q01DX009 (ip), vehicle: other 100 % of control | [4] 100 % of control | dose: 200.0 mg/kg/injection, schedule: Q01DX009 (ip), vehicle: other 104 % of control | [5] 92 % of control | dose: 300.0 mg/kg/injection, schedule: Q01DX009 (ip), vehicle: other 96 % of control | dose: 400.0 mg/kg/injection, schedule: Q04DX003 (ip), vehicle: saline 86 % of control

O=C(OCC(O)C(O)C(O)C(COC(=O)c1ccccc1)OC(=O)c1ccccc1)c1ccccc1 (centres undefined)
inactive: dose: 87.5 mg/kg/injection, schedule: Q01DX009 (ip), vehicle: carboxymethylcellulose (CMC) 87 % of control | [1] 98 % of control | dose: 175.0 mg/kg/injection, schedule: Q01DX009 (ip), vehicle: carboxymethylcellulose (CMC) 90 % of control | [2] 96 % of control | dose: 350.0 mg/kg/injection, schedule: Q01DX009 (ip), vehicle: carboxymethylcellulose (CMC) 87 % of control | [3] 93 % of control

COc1cc(OC)cc(C(=O)N2CC2)c1
inactive: dose: 25.0 mg/kg/injection, schedule: Q01DX009 (ip), vehicle: water 100 % of control | dose: 50.0 mg/kg/injection, schedule: Q01DX009 (ip), vehicle: water 88 % of control

CCC(C(OC(=O)Nc1ccc(Cl)c(Cl)c1)c1ccc(Cl)cc1)C(O)(C(F)(F)F)C(F)(F)F (centres undefined)
inactive: [10] 98 % of control | [11] 100 % of control | [12] 98 % of control

O=C(COc1ccc(Cl)cc1)NC(CO)(CO)CO
inactive: [7] 103 % of control | [8] 103 % of control | [9] 103 % of control

CN1C(CCl)Nc2cc(Cl)c(S(N)(=O)=O)cc2S1(=O)=O (centres undefined)
inactive: dose: 100.0 mg/kg/injection, schedule: Q01DX001 (ip), vehicle: saline 95 % of control | dose: 200.0 mg/kg/injection, schedule: Q01DX001 (ip), vehicle: saline 90 % of control | dose: 400.0 mg/kg/injection, schedule: Q01DX001 (ip), vehicle: saline 96 % of control

O=c1[nH]c(-c2ccccc2)nc(CN2CCCCC2)c1O
inactive: [6] 101 % of control | [1] 101 % of control | [2] 98 % of control | [3] 95 % of control

O=c1ccn(-c2ccccc2)c(=S)[nH]1
inactive: dose: 100.0 mg/kg/injection, schedule: Q01DX001 (ip), vehicle: saline with Tween-80 96 % of control | dose: 100.0 mg/kg/injection, schedule: Q01DX009 (ip), vehicle: saline with Tween-80 95 % of control | dose: 200.0 mg/kg/injection, schedule: Q01DX001 (ip), vehicle: saline with Tween-80 96 % of control | dose: 200.0 mg/kg/injection, schedule: Q01DX009 (ip), vehicle: saline with Tween-80 95 % of control | dose: 400.0 mg/kg/injection, schedule: Q01DX001 (ip), vehicle: saline with Tween-80 100 % of control
